Measurements taken from ChEMBL document CHEMBL4480444, “Structural requirement of tunicamycin V for MraY inhibition” (Bioorg Med Chem, 2019).

Target: T1, Phospho-N-acetylmuramoyl-pentapeptide-transferase (Staphylococcus aureus, UniProt P0C1R8)
T1 sequence (P0C1R8 whole entry): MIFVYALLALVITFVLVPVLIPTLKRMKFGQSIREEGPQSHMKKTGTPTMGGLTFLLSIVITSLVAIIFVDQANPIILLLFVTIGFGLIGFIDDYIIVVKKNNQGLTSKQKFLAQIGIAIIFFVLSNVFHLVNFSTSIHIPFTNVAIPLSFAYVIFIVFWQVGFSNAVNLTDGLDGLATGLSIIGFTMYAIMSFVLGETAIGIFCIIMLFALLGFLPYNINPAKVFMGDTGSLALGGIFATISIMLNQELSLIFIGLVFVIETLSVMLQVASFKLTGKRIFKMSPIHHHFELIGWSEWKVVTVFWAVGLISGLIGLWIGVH
Experiment: Inhibition of Staphylococcus aureus MraY assessed as reduction in dansylated lipid I formation using UDP-MurNAc-dansylpentapeptide incubated for 3 hrs by fluorescence assay

Row | Compound | IC50 [µM]
1 | CC(=O)N[C@H]1[C@@H](O[C@@H]2O[C@H](C[C@@H](O)[C@H]3O[C@@H](n4ccc(=O)[nH]c4=O)[C@H](O)[C@@H]3O)[C@H](O)[C@H](O)[C@H]2NC(=O)/C=C/CCCCCCCCCC(C)C)O[C@H](CO)[C@@H](O)[C@@H]1O (stereo in doubt; form 1) | 0.25
2 | CC(=O)N[C@H]1[C@@H](O[C@@H]2O[C@H](C[C@@H](O)[C@H]3O[C@@H](n4ccc(=O)[nH]c4=O)[C@H](O)[C@@H]3O)[C@H](O)[C@H](O)[C@H]2NC(=O)/C=C/CCCCCCCCCC(C)C)O[C@H](CO)[C@@H](O)[C@@H]1O (stereo in doubt; form 2) | 0.35
3 | CC(=O)N[C@H]1[C@@H](O[C@@H]2O[C@H](CO)[C@H](O)[C@H](O)[C@H]2NC(=O)/C=C/CCCCCCCCCC(C)C)O[C@H](CO)[C@@H](O)[C@@H]1O | > 100

Continued, values first:

Row | IC50 [µM] | Compound
4 | 36 | CC(=O)N[C@H]1[C@H](O[C@H]2O[C@H](CO)[C@@H](O)[C@H](O)[C@H]2NC(C)=O)O[C@H](C[C@@H](O)[C@H]2O[C@@H](n3ccc(=O)[nH]c3=O)[C@H](O)[C@@H]2O)[C@H](O)[C@@H]1O
5 | 36 | CC(C)CCCCCCCCC/C=C/C(=O)N[C@H]1C(O)O[C@H](C[C@@H](O)[C@H]2O[C@@H](n3ccc(=O)[nH]c3=O)[C@H](O)[C@@H]2O)[C@H](O)[C@@H]1O (stereo not given in full)
